Test results published in the NIST ThermoML archive (doi:10.1016/j.fluid.2008.04.002).
Numbers after ± are expanded uncertainties.

Conditions: Liquid, Closed cell (Static) method

SMILES: FCC(F)(F)F [1,1,1,2-tetrafluoroethane]
- vapor or sublimation pressure (263.43 K): 195.7 ± 1 kPa
- vapor or sublimation pressure (273.32 K): 287.1 ± 1.2 kPa
- vapor or sublimation pressure (283.22 K): 407.2 ± 1.5 kPa
- vapor or sublimation pressure (288.3 K): 483.6 ± 1.7 kPa
- vapor or sublimation pressure (293.29 K): 566.3 ± 1.9 kPa
- vapor or sublimation pressure (313.31 K): 1014.7 ± 3.3 kPa
- vapor or sublimation pressure (333.32 K): 1680.4 ± 5.4 kPa
- vapor or sublimation pressure (353.2 K): 2636 ± 8.3 kPa

SMILES: FC(F)(F)C(F)(F)F [hexafluoroethane]
- vapor or sublimation pressure (253.65 K): 1062.9 ± 2 kPa
- vapor or sublimation pressure (258.46 K): 1226.4 ± 2.2 kPa
- vapor or sublimation pressure (263.43 K): 1415.3 ± 4.6 kPa
- vapor or sublimation pressure (263.45 K): 1415.3 ± 2.5 kPa
- vapor or sublimation pressure (268.33 K): 1621.1 ± 2.8 kPa
- vapor or sublimation pressure (273.29 K): 1850 ± 3.2 kPa
- vapor or sublimation pressure (273.32 K): 1862 ± 6 kPa
- vapor or sublimation pressure (278.19 K): 2100.6 ± 3.6 kPa
- vapor or sublimation pressure (283.22 K): 2392 ± 7.6 kPa
- vapor or sublimation pressure (283.25 K): 2385.8 ± 4.1 kPa
- vapor or sublimation pressure (288.2 K): 2697.6 ± 4.6 kPa
- vapor or sublimation pressure (288.3 K): 2697.6 ± 8.6 kPa
- vapor or sublimation pressure (290.22 K): 2832.9 ± 4.8 kPa
- vapor or sublimation pressure (291.22 K): 2903.4 ± 5 kPa
- vapor or sublimation pressure (292.22 K): 2976.2 ± 5.1 kPa
